Results on 1 compound are retold here after patent publication US20230338463A1, “ICD PEPTIDE AND USE THEREOF FOR HAVING CYTOTOXIC ACTIVITY ON CANCER CELLS” (NATIONAL TSING HUA UNIVERSITY, priority 2022, published 2023).

Data set [1] relates to CGNHC9 cells (oral squamous cell carcinoma). The conditions noted are these: human, 24 h. From the text:
(§1) Three non-small cell lung cancer cell lines (H1975, A549, PC9) and two oral cancer cell lines (CGNHC9, OECM-1) were used in the present invention. H1975 is the non-small cell lung carcinoma tissue, A549 is the adenocarcinomic alveolar basal epithelial cells and PC9 is the non-small cell lung cancer with EGFR mutation. CGNHC9 and OECM-1 cell lines refer to oral squamous cell carcinoma and gingival epidermoid carcinoma respectively. The abovemetioned cell lines were derived from human origin and being cultured in the humidified incubator containing 5% CO2 at 37° C. CGNHC9 cell line was cultured in Dulbecco’s modified Eagle’s medium (GIBCO Life Technologies Corporation, NY, USA) with 10% fetal bovine serum (FBS), 2 mM L-glutamine and 1% penicillin/ streptomycin and Roswell Park Memorial Institute 1640 (RPMI 1640, GIBCO Life Technologies Corporation, NY, USA) medium with 10% fetal bovine serum (FBS), 2 mM L-glutamine and 1% penicillin/ streptomycin was used as the culture medium for the rest of the cell lines.
(§2) The anticancer activity of ICD peptides include, not limited, SEQ ID NO: 1 and its derivative peptides (SEQ ID NO: 2, SEQ ID NO: 3, SEQ ID NO: 4, and SEQ ID NO: 5) was using the 3-(4,5-Dimethyl-2-thiazolyl)-2,5-diphenyl-2H-tetrazolium bromide (MTT, Sigma Aldrich, St. Louis, MO, USA) colorimetric assay for cell viability test. The cells include, not limited, H1975, A549, PC9, CGNHC9, OECM-1, MN-11 and HFW cells/cell lines.
(§3) The cells were seeded in the 96-well plate at 5000 cells/well under the environment of humidified 5% CO2 and the temperature of 37° C. for 24 hours. The medium was removed from the well before the fresh medium containing different concentrations of ICD peptides was added and incubated for 24 hours. Medium with PBS solution was used as control group. All ICD peptides were diluted serially from 100 µM to 0.78 µM in ddH2O before adding in the medium. After 24 hours of ICD peptide treatment, fresh medium with 10% MTT solution (5 mg/mL) was incubated for additional 4 hours in advance of dissolving the formazan crystal in 100 µL DMSO (Dimethyl sulfoxide, Sigma Aldrich) solution. The calculation of cell survival rate was completed by measuring the absorbance at 570 nm using microplate reader (TECAN Sunrise ELISA Reader).
(§4) The cell survival was calculated from the treated cells relative to the control (100% viable cells) using the mean of three independent experiments and expressed as a 50% inhibitory concentration (IC50).
(§5) The percentage of cell viability was calculated using the following formula: […]
(§6) The half inhibition concentration (IC50) is the concentration required by the drug to reach fifty percent inhibition. In one embodiment, the SEQ ID NO: 1 and its derivative peptides (SEQ ID NO:2, SEQ ID NO:3, SEQ ID NO:4, SEQ ID NO: 5) was used for IC50 test via MTT colorimetric assay.

The subject of data set [2] is OECM-1 cells (gingival epidermoid carcinoma). The conditions noted are these: human, 24 h.
Text: as §1, §2, §3, §4, §5, §6

Data set [3] has as its system PC9 cells (non-small cell lung cancer with EGFR mutation). Particulars: human, 24 h.
Text: as §1, §2, §3, §4, §5, §6

A further data set has as its system MN-11 cell line. In kind it is cell-based, murine. Particulars: 2 h. On the procedure:
Besides, evaluation of the killing kinetics of Nal-P-113, Bip-P-113 and Dip-P-113 for MN-11 was determined by MTT assay. Two-fold half 1inhibitory concentration (2 × IC50) was chosen for the experiments and the results were recorded at selected time points (30 mins, 1 hour, 2 hours and 4 hours). […] In 2 hours, the cell survival rate was near 50%.

The test system of data set [4] is MN-11 cells. The data set can be described thus: Extracellular HMGB1 Western blot, MN-11. In kind it is cell-based, murine. On the procedure: On the other hand, The MN-11 cells were seeded at the density of 1 × 10^5 cells/well and left to adhere for 24 hrs. Cells were treated with Nal-P-113, Bip-P-113 and Dip-P-113 at 2× IC50 for 1 and 4 hours. After treatment of the peptides, the supernatant and lysate of the cells were collected separately for further experiments. The supernatant was collected after centrifugation at the speed of 1,400 ×g. The cell lysate was washed twice using PBS before the sonication of the pellet using bio-disruptor, and the disrupted pellet was centrifuged again for 10 minutes under 14,000 rpm at 4° C. The concentration of the samples was quantified using the Bradford assay. Both supernatants and cell lysate were loaded and run on the sodium dodecyl sulfate polyacrylamide gel electrophoresis (SDS-PAGE), and then electro transferred to a polyvinylidene difluoride (PVDF) membrane (Merck-Millipore, Burlington, Massachusetts, United States) in electro-blot system, 30 V, 400 mA, for 75 mins. The membrane was incubated in blocking buffer (5% skim milk, TBST buffer) for 1 hour in room temperature and washed in TBST buffer three times. […] The secondary antibody of rabbit (diluted in 1: 10000) was incubated following the rinsing with PBST three times for 2 hours the next day in the room temperature before being developed using luminol reagent and imaged by a detected system (ImageQuant LAS 4000 mini).

The subject of data set [5] is MN-11 cells. As to the kind of experiment: DCFDA cellular ROS detection, MN-11. In kind it is cell-based, murine. Particulars: MN-11, 2 × IC50, 2-hour treatment. On the procedure: However, MN-11 cells were seeded at the density of 25,000 cells/well in the 96-well black plate and allowed to adhere for 24 hours. Cells were washed with a 100 µL/well of PBS to remove the RPMI 1640 medium, and incubated with 100 µL of the 25 µM DCFDA solution for 45 minutes at 37° C. in the dark condition. 100 µL/ well of PBS buffer was washed again for the removal of 25 µM DCFDA solution. The MN-11 cells were treated with Nal-P-113, Bip-P-113 and Dip-P-113 at 2× IC50 for 2 hours. Cells incubated with DMEM without phenol red was used as negative control, and the positive control was tertbutyl hydroperoxide (TBHP) diluted in the 1x Supplemented Buffer. The fluorescence intensity of cellular ROS was determined to an excitation wavelength of 485 nm and an emission wavelength of 535 nm on the Wallac VICTOR 3 Multilabel plate reader (PerkinElmer, Shelton, CT, USA).

For data set [6], the system named is MN-11 cells. The data set can be described thus: Tumor re-challenge of cured animals. In kind it is in vivo, C57BL/6 mice. The conditions noted are these: n=5. On the procedure: Tumor size was measured every 2 days using a caliper, and the volume of tumors was calculated using the following formula: Tumor size (mm^3) = 0.5×(width^2×length). The survival rates of tumor-bearing mice were observed and recorded

Non-standard residues stand in square brackets, D forms with d. Residues, ends and D or L forms follow the SMILES beside them. 2Nal = N[C@@H](Cc1ccc2ccccc2c1)C(=O)O

With `CC(=O)N[C@@H](C)C(=O)N[C@@H](CCCCN)C(=O)N[C@@H](CCCNC(=N)N)C(=O)N[C@@H](Cc1ccc2ccccc2c1)C(=O)N[C@@H](Cc1ccc2ccccc2c1)C(=O)NCC(=O)N[C@@H](Cc1ccc(O)cc1)C(=O)N[C@@H](CCCCN)C(=O)N[C@@H](CCCNC(=N)N)C(=O)N[C@@H](CCCCN)C(=O)N[C@@H](Cc1ccccc1)C(=O)N[C@@H](Cc1ccc2ccccc2c1)C(N)=O` [SEQ ID NO:3, Ac-AKR Nal Nal GYKRKFNal-NH2] (Ac-AKR[2Nal][2Nal]GYKRKF[2Nal]-NH2), the cell viability percentage result in data set [1], in data set [2] and in data set [3] was “lower than 20%” throughout. In the data set on MN-11 cell line, this compound returned a cell survival rate of about 50%. Also, the HMGB1 in supernatant entry is given as “observed in the supernatant” with MN-11 cells [4] (MN-11, 2× IC50, 1 hour) and “still a significant concentration” with MN-11 cells [4] (MN-11, 2× IC50, 4 hours). Also, the “fluorescence intensity of cellular ROS (ROS production)” value in the data set with MN-11 cells [5] is “did not change”. Moreover, the “protection from MN-11 cells re-challenge” value in the data set with MN-11 cells [6] (animals with complete regression, s.c. re-challenge) was “All animals were protected”. For the same compound, the survival after re-challenge result with MN-11 cells [6] (until the end of the experiments (55 days)) is “stayed alive”.
